Eleven molecules from patent US20140234888A1, “Method for Improved Selection of Therapeutic Agents” (priority 2013, published 2014) can be followed below.

Assay [1] relates to Chronic rhinitis of allergic origin, chronic bronchitis. The assay can be described thus: Treatment of patient F. It is filed as in vivo, human. The following applies: before individual testing. How it is done:
Diagnosis: “Chronic rhinitis of allergic origin, chronic bronchitis, allergic component in the acute stage.” In history: positive allergic reactions to penicillin antibiotics, the lack of reaction to tetracycline antibiotics. […] Doxycycline is used in doses of 100 mg and 200 mg on admission; when calculating the duration of induktothermy effect was adopted by the duration of the patient's blood sample for 2 seconds, which corresponds to the length of the actual procedure, 25-30 minutes.

The subject of assay [2] is whole blood. The assay can be described thus: TDR-test in vitro, blood of patient G. (Example 1). It is filed as cell-based, human. As to conditions: for reduction TDR: after 24 hours of incubation.
For assay [3], the system named is blood cell fraction. The assay can be described thus: TDR-test in vitro, blood of patient B. (Example 2). The assay is classed as cell-based, human. As to conditions: for reduction TDR: patient B. blood, after 24 hours of incubation. Here is the method:
Individual selection of anticancer chemotherapy was based on testing the dynamics of TDR in blood with cytostatics—Etoposide (in single therapeutic doses 80-100-120 mg/m2), Cisplatin (25-50-75-100 mg/m2), Carboplatin (150-300-450 mg/m2), Gemcitabine (800-1000-1200 mg/m2), Navelbine (25-30-35 mg/m2), Doxorubicin (20-30-40 mg/m2), Epidoxorubicin (50-70-90 mg/m2), Mitomycin C (4-6-8 mg/m2).

Assay [4] deals with patient's blood. Kind of assay: TDR-test in vitro, blood of patient M. (Example 4). The following applies: various doses, 1, 2 and 24 hours.
Procedure: Therefore, we first proposed to take, in fact, it is a dynamic integrated assessment test “in vitro” level of nonspecific resistance to therapeutic agents during interaction with the blood of the patient. Selection of optimal treatments, their doses and combinations proposed to control the TDR dynamics within 24-72 hours, with some time intervals. The choice of temporary interval for determination the TDR dynamic is defined of main stage of the biochemical interaction of medicine (or non-drug therapeutic influence) with blood of the patient in vitro (phase 1—induction of biochemical reactions within the first 10-40 minutes, 2nd—for 1-3 hours, 3rd—within 24-72 hours). Therefore, TDR is expedient to record in intervals of precisely these three main stages of the induced signal transduction and protein synthesis (30-60 minutes, 2-3 hours, 24-72 hours after the start of testing).
The test system of assay [5] is microflora of the respiratory tract. Kind of assay: Sputum sample sensitivity to antibiotics (antibiotikogramma). The assay is classed as cell-based. As to conditions: sputum sample of patient M.
For assay [6], the system named is Chronic obstructive bronchitis. Kind of assay: Treatment of patient M. As to conditions: endobronchial 250 mg followed by inductothermy 30 minutes, 1 treatment per day, 10 procedures, 2 weeks. The assay is classed as in vivo, human. Here is the method:
Based on the results of investigations the patient was assigned to a combination of antibiotic Cefazolin and inductothermy: endobronchial administration of Cefazolin 250 mg and immediately after this session inductothermy the projection of the large bronchi in the anterior-posterior direction with opposing fields of the two vehicles “Magniterm” for 30 minutes.

Regarding `CC[C@H]1OC(=O)[C@H](C)[C@@H](O[C@H]2C[C@@](C)(OC)[C@@H](O)[C@H](C)O2)[C@H](C)[C@@H](O[C@@H]2O[C@H](C)C[C@H](N(C)C)[C@H]2O)[C@](C)(O)C[C@@H](C)C(=O)[C@H](C)[C@@H](O)[C@]1(C)O` [Erythromycin], the “efficiency of conventional therapy” value in assay [1] is “low efficiency”.

Take `O=P1(N(CCCl)CCCl)NCCCO1` (stereo not drawn) [Cyclophosphamide]: the “reduction TDR” value in assay [2] (dose 600 mg/m2) was 30%.

Consider `COc1cc([C@@H]2c3cc4c(cc3[C@@H](O[C@@H]3O[C@@H]5CO[C@@H](C)O[C@H]5[C@H](O)[C@H]3O)[C@H]3COC(=O)[C@H]23)OCO4)cc(OC)c1O` [Etoposide], for which the “reduction TDR” value in assay [3] (dose 120 mg/m2) was determined as 21%.

For `CC(=O)O[C@H]1C(=O)[C@@]2(C)[C@H]([C@H](OC(=O)c3ccccc3)[C@]3(O)C[C@H](OC(=O)[C@H](O)[C@@H](NC(=O)c4ccccc4)c4ccccc4)C(C)=C1C3(C)C)[C@]1(OC(C)=O)CO[C@@H]1C[C@@H]2O` [Paclitaxel], the “reduction TDR” value in assay [2] (dose 175 mg/m2) is reported as 28%; in assay [3] (dose 190 mg/m2), 25%.

Consider `CCC1=C[C@@H]2CN(C1)Cc1c([nH]c3ccccc13)[C@@](C(=O)OC)(c1cc3c(cc1OC)N(C)[C@H]1[C@@](O)(C(=O)OC)[C@H](OC(C)=O)[C@]4(CC)C=CCN5CC[C@]31[C@@H]54)C2` [Navelbine], for which the “reduction TDR” value in assay [3] (dose 25 mg/m2) is given as 20%.

For `CC(=O)N[C@H]1[C@H](O[C@H]2[C@H](O[C@H](C)C(=O)N[C@@H](C)C(=O)N[C@H](CCC(=O)O)C(N)=O)[C@@H](NC(C)=O)C(O)O[C@@H]2CO)O[C@H](CO)[C@@H](O)[C@@H]1O` (stereo partly drawn) [GMDP, glucosomuramyldipeptide], the “TDR increase compared to control” value in assay [2] (24 h incubation, dose 5 mg) came to 64%. Further, the “increase in TDR compared with the control” value in assay [3] (patient B. blood cell fraction, after 1 hour of incubation, dose 50 mg) is reported as 78%. Besides, the “increase in TDR” value in assay [3] (patient B. blood cell fraction, after 24 h of incubation, dose 10 mg) is 228%.

On to `N.N.[Cl][Pt][Cl]` [Cisplatin], for which the “reduction TDR” value in assay [2] (dose 75 mg/m2) and in assay [3] (dose 100 mg/m2) was 32% each time.

As to `Cc1nnc(SCC2=C(C(=O)O)N3C(=O)[C@@H](NC(=O)Cn4cnnn4)[C@H]3SC2)s1` [Cefazolin], the “change of TDR in blood samples during the incubation” value in assay [4] was “progressive decrease”. In addition, the “sensitivity of the microflora to the antibiotic” value in assay [5] is recorded as “highly sensitive”. Also, the clinical outcome in assay [6] is “sustained remission of chronic bronchitis”.

Regarding `Nc1ccn([C@@H]2O[C@H](CO)[C@@H](O)C2(F)F)c(=O)n1` [Gemcitabine], the “reduction TDR” value in assay [3] (dose 1200 mg/m2) is 30%.

Regarding `CN1CCc2c(c3ccccc3n2Cc2ccccc2)C1` [Diazolin], the “efficiency of conventional therapy” value in assay [1] is “low efficiency”.

Turning to `N.N.O=C([O-])C1(C(=O)[O-])CCC1.[Pt+2]` [Carboplatin], the “reduction TDR” value worked out at 36% in assay [2] (dose 450 mg/m2) and 27% in assay [3] (dose 350 mg/m2).
